Source: PMC8286840, “Identifying SARS-CoV-2 antiviral compounds by screening for small molecule inhibitors of Nsp3 papain-like protease” (Biochemical Journal, 2021)
Counter-ions that a name gives are not always drawn. Like-named read-outs stand apart in the source and are kept apart here.

Assays:
[1] = target: T1, SARS-CoV-2 PLpro (nsp3 1564–1878) (Severe acute respiratory syndrome coronavirus 2, UniProt P0DTD1); experiment: biochemical; design: FRET-quenched peptide (Pro3) cleavage by PLpro, 10 min pre-incubation, slope over 20 min, normalised to no-compound control; conditions: high concentration screen, read-out: % of control remaining
[2] = target: T1, SARS-CoV-2 PLpro (nsp3 1564–1878); experiment: biochemical; design: FRET-quenched peptide (Pro3) cleavage by PLpro, 10 min pre-incubation, slope over 20 min, normalised to no-compound control; conditions: low concentration screen, read-out: % of control remaining

For `C[C@@H]1O[C@@H](Oc2c(-c3ccc(O)c(O)c3)oc3cc(O)cc(O)c3c2=O)[C@H](O)[C@H](O)[C@H]1O` [Quercitrin], the remaining activity at 3.75 µM ([1]; Well no.=3112) was 96.5% and the remaining activity at 1.25 µM ([2]; Well no.=3112) was 96.4%.
For `OCCOCCN1CCN(C2=Nc3ccccc3Sc3ccccc32)CC1` [Quetiapine (fumarate)], the remaining activity at 3.75 µM ([1]; Well no.=6237) was 94.3% and the remaining activity at 1.25 µM ([2]; Well no.=6237) was 98.2%.
With `OCCOCCN1CCN(C2=Nc3ccccc3Sc3ccccc32)CC1` [Quetiapine Fumarate] the remaining activity at 3.75 µM ([1]; Well no.=1684) was 100% and the remaining activity at 1.25 µM ([2]; Well no.=1684) was 99.2%.
`OCCOCCN1CCN(C2=Nc3ccccc3Sc3ccccc32)CC1` [Quetiapine] showed a remaining activity at 3.75 µM ([1]; Well no.=6616) of 98.6% and a remaining activity at 1.25 µM ([2]; Well no.=6616) of 98.1%.
`CCN(CC)CCCC(C)Nc1c2ccc(Cl)cc2nc2ccc(OC)cc12` (stereo not drawn) [Quinacrine dihydrochloride] showed a remaining activity at 3.75 µM ([1]; Well no.=1173) of 98.3% and a remaining activity at 1.25 µM ([2]; Well no.=1173) of 96.3%.
With `CCN(CC)CCCC(C)Nc1c2ccc(Cl)cc2nc2ccc(OC)cc12` (stereo not drawn) [Quinacrine] the remaining activity at 3.75 µM ([1]; Well no.=2187) was 97.2% and the remaining activity at 1.25 µM ([2]; Well no.=2187) was 96.6%.
With `CCOC(=O)[C@H](CCc1ccccc1)N[C@@H](C)C(=O)N1Cc2ccccc2C[C@H]1C(=O)O` [Quinapril (hydrochloride)] the remaining activity at 3.75 µM ([1]; Well no.=7828) was 95% and the remaining activity at 1.25 µM ([2]; Well no.=7828) was 96.3%.
With `CCOC(=O)[C@H](CCc1ccccc1)N[C@@H](C)C(=O)N1Cc2ccccc2C[C@H]1C(=O)O` [Quinapril] the remaining activity at 3.75 µM ([1]; Well no.=2189) was 96.3% and the remaining activity at 1.25 µM ([2]; Well no.=2189) was 98.1%.
`CCCN1CCC[C@@H]2Cc3nc(N)ncc3C[C@H]21` [Quinelorane dihydrochloride] gave a remaining activity at 3.75 µM ([1]; Well no.=1413) of 98.2% and a remaining activity at 1.25 µM ([2]; Well no.=1413) of 95.1%.
In the case of `C=C[C@H]1CN2CC[C@H]1C[C@@H]2[C@@H](O)c1ccnc2ccc(OC)cc12` [Quinidine sulfate], the remaining activity at 3.75 µM ([1]; Well no.=1363) is reported as 105% and the remaining activity at 1.25 µM ([2]; Well no.=1363) is reported as 101%.
For `C=C[C@H]1CN2CC[C@H]1C[C@H]2[C@H](O)c1ccnc2ccc(OC)cc12` [Quinine sulfate], the remaining activity at 3.75 µM ([1]; Well no.=1459) was 100% and the remaining activity at 1.25 µM ([2]; Well no.=1459) was 98.4%.
In the case of `O=C(O)c1cccnc1C(=O)O` [Quinolinic acid], the remaining activity at 3.75 µM ([1]; Well no.=1267) is reported as 109%, the remaining activity at 3.75 µM ([1]; Well no.=7265) is reported as 94.7% and the remaining activity at 1.25 µM ([2]; Well no.=1267) is reported as 105%. The remaining activity at 1.25 µM ([2]; Well no.=7265) was 96.1%.
Molecule `c1ccc2nc(N3CCNCC3)ccc2c1` [Quipazine dimaleate] has a remaining activity at 3.75 µM ([1]; Well no.=1411) of 101% and a remaining activity at 1.25 µM ([2]; Well no.=1411) of 99.5%.
For `N[C@@H](Cn1oc(=O)[nH]c1=O)C(=O)O` [Quisqualic acid], the remaining activity at 3.75 µM ([1]; Well no.=3535) was 101% and the remaining activity at 1.25 µM ([2]; Well no.=3535) was 101%.
Molecule `COc1cc(Nc2ncc(F)c(Nc3ccc4c(n3)NC(=O)C(C)(C)O4)n2)cc(OC)c1OC` [R406 (free base)] has a remaining activity at 3.75 µM ([1]; Well no.=4951) of 102% and a remaining activity at 1.25 µM ([2]; Well no.=4951) of 102%.
`COc1cc(Nc2ncc(F)c(Nc3ccc4c(n3)NC(=O)C(C)(C)O4)n2)cc(OC)c1OC` [R406] showed a remaining activity at 3.75 µM ([1]; Well no.=4816) of 99.1% and a remaining activity at 1.25 µM ([2]; Well no.=4816) of 101%.
`COc1ccc(F)c(F)c1C(=O)c1cnc(NC2CCN(S(C)(=O)=O)CC2)nc1N` [R547] showed a remaining activity at 3.75 µM ([1]; Well no.=4653) of 93.6% and a remaining activity at 1.25 µM ([2]; Well no.=4653) of 94.4%.
Molecule `CCCN1CCC[C@H](c2cccc(O)c2)C1` [R(+)-3PPP hydrochloride] has a remaining activity at 3.75 µM ([1]; Well no.=1261) of 107% and a remaining activity at 1.25 µM ([2]; Well no.=1261) of 105%.
`C=CCN1CCc2c(cc(O)c(O)c2Br)[C@@H](c2ccccc2)C1` [R(+)-6-Bromo-APB hydrobromide] gave a remaining activity at 3.75 µM ([1]; Well no.=277) of 97.4% and a remaining activity at 1.25 µM ([2]; Well no.=277) of 98.1%.
For `CC(C)NC[C@@H](O)COc1ccc(CC(N)=O)cc1` [R(+)-Atenolol], the remaining activity at 3.75 µM ([1]; Well no.=302) was 94.8% and the remaining activity at 1.25 µM ([2]; Well no.=302) was 94.7%.
`C[C@@]1(C2CCCC2)Cc2cc(OCC(=O)O)c(Cl)c(Cl)c2C1=O` [R(+)-IAA-94] showed a remaining activity at 3.75 µM ([1]; Well no.=921) of 105% and a remaining activity at 1.25 µM ([2]; Well no.=921) of 104%.
`CN1CCc2cc(Cl)c(O)cc2[C@@H](c2ccccc2)C1` [R(+)-SCH-23390 hydrochloride] gave a remaining activity at 3.75 µM ([1]; Well no.=638) of 98% and a remaining activity at 1.25 µM ([2]; Well no.=638) of 96.8%.
`COc1cc2c(c(OC)c1OC)-c1c(cc(OC)c(OC)c1OC)C[C@H](C)[C@H](C)C2` [R(+)-Schisandrin A] showed a remaining activity at 3.75 µM ([1]; Well no.=3741) of 93.8% and a remaining activity at 1.25 µM ([2]; Well no.=3741) of 91.7%.
In the case of `CCN(CC)C(=O)N[C@@H]1C[C@@H]2c3cccc4[nH]cc(c34)C[C@H]2N(C)C1` [R(+)-Terguride], the remaining activity at 3.75 µM ([1]; Well no.=1330) is reported as 104% and the remaining activity at 1.25 µM ([2]; Well no.=1330) is reported as 103%.
`CCCN(CCC)[C@@H]1CCc2c(F)ccc(O)c2C1` [R(+)-UH-301 hydrochloride] showed a remaining activity at 3.75 µM ([1]; Well no.=1382) of 98.5% and a remaining activity at 1.25 µM ([2]; Well no.=1382) of 98.7%.
For `CCCN1CCc2cc(O)cc3c2[C@H]1Cc1ccc(O)c(O)c1-3` [R(-)-2,10,11-Trihydroxy-N-propylnoraporphine hydrobromide], the remaining activity at 3.75 µM ([1]; Well no.=636) was 103% and the remaining activity at 1.25 µM ([2]; Well no.=636) was 103%.
`CN1CCc2cc(O)cc3c2[C@H]1Cc1ccc(O)c(O)c1-3` [R(-)-2,10,11-Trihydroxyaporphine hybrobromide] showed a remaining activity at 3.75 µM ([1]; Well no.=588) of 100% and a remaining activity at 1.25 µM ([2]; Well no.=588) of 104%.
For `COc1ccc(CCNC[C@@H](O)c2ccc(O)cc2)cc1OC` [R(-)-Denopamine], the remaining activity at 3.75 µM ([1]; Well no.=1498) was 100% and the remaining activity at 1.25 µM ([2]; Well no.=1498) was 103%.
`C=CCN1CCc2cccc3c2[C@H]1Cc1ccc(O)c(O)c1-3` [R(-)-N-Allylnorapomorphine hydrobromide] was tested, and the remaining activity at 3.75 µM ([1]; Well no.=398) was 97.4% and the remaining activity at 1.25 µM ([2]; Well no.=398) was 98.8%.
`CCCN1CCc2cccc3c2[C@H]1Cc1ccc(O)c(O)c1-3` [R(-)-Propylnorapomorphine hydrochloride] was tested, and the remaining activity at 3.75 µM ([1]; Well no.=540) was 108% and the remaining activity at 1.25 µM ([2]; Well no.=540) was 104%.
`COc1cc2c(cc1OC)[C@@H](c1ccccc1)CN(C)CC2` [R(-)-SCH-12679 maleate] was tested, and the remaining activity at 3.75 µM ([1]; Well no.=1231) was 104% and the remaining activity at 1.25 µM ([2]; Well no.=1231) was 101%.
In the case of `[N-]=[N+]=N[C@]1(CO)O[C@@H](n2ccc(N)nc2=O)[C@H](O)[C@@H]1O` [R-1479], the remaining activity at 3.75 µM ([1]; Well no.=7756) is reported as 99% and the remaining activity at 1.25 µM ([2]; Well no.=7756) is reported as 97.4%.
`CCCN(CCC)[C@@H]1CCc2ccc(O)cc2C1` [R-(+)-7-Hydroxy-DPAT hydrobromide] was tested, and the remaining activity at 3.75 µM ([1]; Well no.=428) was 96.9% and the remaining activity at 1.25 µM ([2]; Well no.=428) was 97.2%.
`CCCN(CCC)[C@@H]1CCc2cccc(O)c2C1` [R-(+)-8-Hydroxy-DPAT hydrobromide] gave a remaining activity at 3.75 µM ([1]; Well no.=762) of 88.8% and a remaining activity at 1.25 µM ([2]; Well no.=762) of 92.2%.
In the case of `CNCC[C@@H](Oc1ccc(C(F)(F)F)cc1)c1ccccc1` [R-(-)-Fluoxetine hydrochloride], the remaining activity at 3.75 µM ([1]; Well no.=419) is reported as 92.4% and the remaining activity at 1.25 µM ([2]; Well no.=419) is reported as 92.7%.
